These results are taken from ChEMBL document CHEMBL1806427, “Pyridine-derived γ-secretase modulators” (Bioorg Med Chem Lett, 2011).

Data set [1] is described as follows: Ratio of drug level in brain to blood in Sprague-Dawley rat at 30 mg/kg, po. As to conditions: brain/whole blood, read-out: BBR. Details: dose 30 mg/kg, route oral. Type of data set: ADME, organism-based.
Data set [2] deals with Rattus norvegicus. The experiment in a line: Toxicity in Sprague-Dawley rat assessed as effect on Notch-mediated CD8 level in thymocytes at 30 mg/kg/day, po for 5 days measured 6 hrs after last dose. Type of data set: organism-based. Details: route oral. The note with it: in vivo.
A short description of data set [3]: Drug level in Sprague-Dawley rat brain at 30 mg/kg/day, po for 5 days measured 6 hrs after last dose. The note with it: read-out: Drug uptake. Type of data set: ADME, organism-based. Details: route oral.
The test system of data set [4] is Rattus norvegicus. Kind of data set: Antialzheimer activity in Sprague-Dawley rat assessed as reduction of amyloid beta42 level in brain at 30 mg/kg/day, po for 5 days measured 6 hrs after last dose. Type of data set: functional. Details: scale not given: the % may be the effect or the level left.
Another data set deals with Brain. Kind of data set: Drug level in Sprague-Dawley rat brain at 30 mg/kg, po. Type of data set: ADME, organism-based. Details: dose 30 mg/kg, route oral. As to conditions: in vivo, read-out: Drug uptake.
The test system of a further data set is Blood. Kind of data set: Drug level in Sprague-Dawley rat blood at 30 mg/kg, po. Type of data set: ADME, organism-based. Details: dose 30 mg/kg, route oral. As to conditions: in vivo, read-out: Drug uptake.
Data set [5] relates to Rattus norvegicus. Kind of data set: Toxicity in Sprague-Dawley rat assessed as effect on Notch-mediated Hes-1 mRNA level in ileum at 30 mg/kg/day, po for 5 days measured 6 hrs after last dose. Type of data set: organism-based. Details: route oral. As to conditions: in vivo.
Data set [6] addresses Gamma-secretase. Kind of data set: Inhibition of gamma-secretase in human SHSY5Y cells expressing human recombinant Swedish variant of APP K595N/M596L assessed as reduction of amyloid beta42 level after 48 hrs by AlphaLISA assay. Type of data set: cell-based. As to conditions: sh-sy5y. (Alpha assays give light when donor and acceptor beads are brought close together.)
Data set [7] in a line: Inhibition of gamma-secretase expressed in african green monkey CV1 cells co-expressing Gal4 DNA-binding/transactivation domain assessed as inhibition of notch processing after 22 hrs by luciferase reporter assay. Type of data set: cell-based. As to conditions: CV-1, 22 h.
In the next data set the test system is SH-SY5Y. Kind of data set: Toxicity in human SH-SY5Y cells assessed as cell viability up to 3 uM by WST-1 assay. Type of data set: cell-based.
In data set [8] the target is Gamma-secretase. Kind of data set: Inhibition of gamma-secretase in human SHSY5Y cells expressing human recombinant Swedish variant of APP K595N/M596L assessed as reduction of amyloid beta40 level after 48 hrs by AlphaLISA assay. Type of data set: cell-based. As to conditions: sh-sy5y.
Data set [9] concerns Rattus norvegicus. The experiment in a line: Toxicity in Sprague-Dawley rat assessed as effect on Notch-mediated CD4 level in thymocytes at 30 mg/kg/day, po for 5 days measured 6 hrs after last dose. Type of data set: organism-based. Details: route oral. The note with it: in vivo.
Data set [10] is described as follows: Blood clearance in Sprague-Dawley rat at 1 mg/kg, iv and 2 mg/kg, po. Type of data set: ADME, organism-based. The note with it: whole blood.
Data set [11] is described as follows: Oral bioavailability in Sprague-Dawley rat at 2 mg/kg. Type of data set: ADME, organism-based. As to conditions: in vivo.
A short description of data set [12]: Half life in Sprague-Dawley rat at 1 mg/kg, iv and 2 mg/kg, po. Type of data set: ADME, organism-based. As to conditions: in vivo.
The nature of data set [13]: Volume of distribution at steady state in Sprague-Dawley rat at 1 mg/kg, iv and 2 mg/kg, po. As to conditions: in vivo, read-out: Vdss. Type of data set: ADME, organism-based.
In data set [14] the target is T1, Gamma-secretase (Homo sapiens) (UniProt Q96BI3+Q9NZ42+Q8WW43+P49768+Q92542+P49810). The experiment in a line: Inhibition of gamma-secretase in human SHSY5Y cells expressing human recombinant Swedish variant of APP K595N/M596L assessed as increase of total amyloid beta level after 24 hrs by DELFIA assay. Type of data set: cell-based. The note with it: SH-SY5Y.
The target in data set [15] is T1, Gamma-secretase (Homo sapiens). The experiment in a line: Inhibition of gamma-secretase in human SHSY5Y cells expressing human recombinant Swedish variant of APP K595N/M596L assessed as reduction of amyloid beta42 level after 24 hrs by DELFIA assay. Type of data set: cell-based. The note with it: SH-SY5Y.
Data set [16] has the same target. The experiment in a line: Inhibition of gamma-secretase in human SHSY5Y cells expressing human recombinant Swedish variant of APP K595N/M596L assessed as reduction of amyloid beta40 level after 24 hrs by DELFIA assay. Type of data set: cell-based. The note with it: SH-SY5Y.

The source made the active and inactive calls.

In the case of `COc1cc(-c2ccc(N[C@@H](C)c3ccc(F)cc3)nc2)ccc1-n1cnc(C)c1` [listing 1 of 2 here], the Kp in [1] was 1.74. Further, the Activity entry in the data set with Rattus norvegicus [2] was “Non-toxic”; in the data set with Rattus norvegicus [4], 27.6%; with Rattus norvegicus [5], “Non-toxic”; with SH-SY5Y, “Non-toxic”; in the data set on Rattus norvegicus [9], “Non-toxic”. Besides, the concentration at 6 h in data set [3] came out at 8.86 µM. Moreover, the results for the concentration in the data set on Brain and in the data set on Blood were 8.75 µM and 4.98 µM, respectively. In addition, the values for the pIC50 on Gamma-secretase [6] and on Gamma-secretase [8] were 6.9 and 6.1, respectively. Also, the IC50 in data set [7] is 10 µM.

Consider `Cc1cn(-c2ccc(-c3ccc(N[C@@H](C)c4ccc(F)cc4)nc3)cc2-c2ccccc2)cn1`, for which the pIC50 on Gamma-secretase [6] is on record as 4.8; at Gamma-secretase [8] it was 5.

For the compound `COc1cc(-c2ccc(N[C@@H](C)c3ccc(F)cc3)nc2)ccc1-c1sc(C)nc1C`, the pIC50 at Gamma-secretase [6] turned out to be 6.4; at Gamma-secretase [8], 5.3. For the same compound, the IC50 in [7] is 10 µM.

For `COc1cc(-c2ccc(N[C@@H](C)c3ccc(F)cc3)nc2)ccc1-n1cnc(C)c1.Cl`, in [10], the clearance was 12.2 mL/min/kg. The same compound yielded a bioavailability in data set [11] of 100%. In [12], this compound gave a half-life of 3.3 h. Further, in [13], the Vd turned out to be 3.7 L/kg.

Consider `COc1cc(-c2nnc(N[C@@H](C)c3ccc(F)cc3)s2)ccc1-n1cnc(C)c1`, for which the pIC50 is given as 7.1 on Gamma-secretase [6] and 6.2 on Gamma-secretase [8].

On to `COc1cc(-c2cc(C)c(N[C@@H](C)c3ccc(F)cc3)nn2)ccc1-n1cnc(C)c1`, for which the Activity entry in the data set on Rattus norvegicus [2] is “Non-toxic”; in the data set on Rattus norvegicus [4], 45.7%; with Rattus norvegicus [5], “Non-toxic”; with Rattus norvegicus [9], “Non-toxic”. The concentration at 6 h in [3] stood at 10.4 µM.

With `COc1cc(-c2noc(N[C@@H](C)c3ccc(F)cc3)n2)ccc1-n1cnc(C)c1`, the values for the pIC50 at Gamma-secretase [6] and on Gamma-secretase [8] were 6.5 and 4.5, respectively.

Regarding `COc1cc(-c2ccc(N[C@@H](C)c3ccc(F)cc3)nc2)ccc1-c1ccnnc1`, the pIC50 at Gamma-secretase [6] was found to be 6.4; at Gamma-secretase [8], 5.7. Moreover, the IC50 in data set [7] is 12.6 µM.

With `CCOc1cc(-c2ccc(N[C@@H](C)c3ccc(F)cc3)nc2)ccc1-n1cnc(C)c1`, the pIC50 amounted to 6.3 at Gamma-secretase [6] and 5.3 on Gamma-secretase [8].

In the case of `COc1cc(-c2ccc(N[C@@H](C)c3ccc(F)cc3)nc2)ccc1-c1cc(C)ns1`, the pIC50 at Gamma-secretase [6] came to 6.6; on Gamma-secretase [8], 5.7. Moreover, the IC50 in [7] was 15.8 µM.

On to `COc1cc(-c2cnc(N[C@@H](C)c3ccc(F)cc3)nc2)ccc1-n1cnc(C)c1`, for which the figures for the pIC50 at Gamma-secretase [6] and at Gamma-secretase [8] were 6.7 and 6, respectively. Besides, the IC50 in [7] is 10 µM.

Take `COc1cc(-c2ccc(N[C@@H](C)c3ccc(F)cc3)nc2)ccc1-c1ccnc(C)c1`: the pIC50 at Gamma-secretase [6] is 6.3; at Gamma-secretase [8], 5.2. Further, in data set [7], the IC50 was 6.31 µM.

Take `Cc1cn(-c2ccc(-c3ccc(N[C@@H](C)c4ccc(F)cc4)nc3)cc2C)cn1`: the results for the pIC50 on Gamma-secretase [6] and at Gamma-secretase [8] were 5.2 and 4.8, respectively.

In the case of `Cc1cn(-c2ccc(-c3ccc(N[C@@H](C)c4ccc(F)cc4)nc3)cc2N(C)C)cn1`, the pIC50 at Gamma-secretase [6] came to 4.3; on Gamma-secretase [8], 4.4.

For the compound `COc1cc(-c2cnc(N[C@@H](C)c3ccc(F)cc3)s2)ccc1-n1cnc(C)c1`, the pIC50 is 6.1 on Gamma-secretase [6] and 4.3 on Gamma-secretase [8].

For the compound `COc1cc(-c2ccc(N[C@@H](C)c3ccc(F)cc3)cn2)ccc1-n1cnc(C)c1`, the pIC50 at Gamma-secretase [6] was determined as 6.2; on Gamma-secretase [8] it was 5. The IC50 in data set [7] was 6.31 µM.

On to `COc1cc(-c2ncc(N[C@@H](C)c3ccc(F)cc3)cn2)ccc1-n1cnc(C)c1`, for which the pIC50 at Gamma-secretase [6] is given as 6.6; on Gamma-secretase [8] it was 5.9. Further, in data set [7], the IC50 is 10 µM.

In the case of `COc1cc(-c2ccc(N[C@@H](C)c3ccc(F)cc3)nc2)ccc1-n1cnc(C)c1` [listing 2 of 2 here], the inhibition result in data set [14] was “Active”. Also, the inhibition entry in data set [15] and in [16] was “Dose-dependent effect” throughout.

Take `CNC(=O)c1cc(-c2ccc(N[C@@H](C)c3ccc(F)cc3)nc2)ccc1-n1cnc(C)c1`: the pIC50 at Gamma-secretase [6] and on Gamma-secretase [8] was less than 4 throughout.

For `Cc1cn(-c2ccc(-c3ccc(N[C@@H](C)c4ccc(F)cc4)nc3)cc2Cl)cn1`, the pIC50 on Gamma-secretase [6] was 6.4; on Gamma-secretase [8] it was 5.7.

`Cc1cn(-c2ccc(-c3ccc(N[C@@H](C)c4ccc(F)cc4)nc3)cc2OC(C)C)cn1`: the pIC50 at Gamma-secretase [6] was 5.5; on Gamma-secretase [8] it was 5.1.

The term pIC50 denotes the IC50 on a negative log10 scale, so that one unit is a factor of ten. As a reminder, the IC50 is the concentration that gives 50% inhibition. Broadly, the bioavailability is the share of a dose that reaches the circulation, judged against a reference dose that is usually intravenous. The term half-life denotes the time needed for the level to fall by half in the phase considered.
